Experimental data reported in publication PMC9457600, “Synthesis, Leishmanicidal, Trypanocidal, Antiproliferative Assay and Apoptotic Induction of (2-Phenoxypyridin-3-yl)naphthalene-1(2H)-one Derivatives” (Molecules, 2022).

Key:
[1] = test system: CEM-DNR; assay: MTS antiproliferative assay CEM-DNR; format: cell-based; details: Homo sapiens, 72 h of incubation, daunorubicin-resistant
Excerpt: (§1) The cell lines used were acquired from the American Type Culture Collection (ATCC), CCRF-CEM (T lymphoblastic leukemia), K562 ([…]), U2OS (osteosarcoma), HCT116 (colon carcinoma), A549 (lung adenocarcinoma) and HCT116p53−/− (HCT116 cell line mutated in p53) Horizon Discovery Ltd., (Waterbeach, Cambridge, United Kingdom).
(§2) In our laboratory, IMTM, we generated the daunorubicin-resistant subline of CCRF-CEM cells (CEM-DNR bulk) and paclitaxel-resistant subline K562-TAX, as described previously. […] Both ABC transporters are involved in drug resistance. As a control, human fibroblasts MRC-5 and BJ cell lines were used. […] Adherent cells were passaged using PBS containing 0.25% trypsin plus 0.01% EDTA (ethylenediamine tetraacetic acid) every 2–3 days.
(§3) The antiproliferative activity of compounds was determined using a standard 3-(4,5-dimethylthiazol-2yl)-5-(3-carboxymethoxyphenyl)-2-(4-sulfophenyl)-2H-tetrazolium (MTS) reduction assay on a robotic high throughput screening platform (HighResBio, Boston, MA, USA) following treatment of cells for 3–7 days. The IC50 values were calculated from the appropriate dose–response curves with Dotmatics software (San Diego, CA, USA).

[2] = test system: promastigotes of Leishmania (V.) braziliensis strain MHOM/CO/87/UA301; assay: MTT viability of L. braziliensis promastigotes; format: cell-based
Protocol: Promastigotes of Leishmania (V.) braziliensis strain MHOM/CO/87/UA301 were isolated from footpad lesions in Balb/C mice previously infected. In the process of maintenance and differentiation of the parasites, the LTI medium (tryptose 15 g/L, yeast extract 5 g/L, liver extract 2 g/L, hemin-NaOH 0.02 g/L, glucose 4 g/L, NaCl 9 g/L, KCl 0.4 g/L Na2HPO4, 7.5 g/L at pH 7.4) supplemented with 10% fetal calf serum and maintained at 29 °C was used.
Briefly, 96-well plates were used, where 2 × 10^6 parasites/mL were seeded. A concentration of 50 μM was used for each compound and an incubation time of 96 h at 29 °C. 3-(4,5-dimethylthiazol-2-yl)-2,5-diphenyl tetrazolium bromide (MTT) 1 μg/mL was added and incubated in darkness for 4 h, acidic isopropanol (4N) was added and the plate was read at 570 nm in a spectrophotometer Synergy HT (Biotek). Miltefosine was used as a reference drug. The EC50 calculation of the selected compound was performed using growth curves. Direct counting was used to monitor the proliferation of parasites, three independent experiments were performed for each concentration of the compounds evaluated. The in vitro evaluations of compounds toxicity by MTT in VERO and BMDM cells follow a methodology described above with some modifications [60].

[3] = test system: VERO cells; assay: MTT cytotoxicity on VERO cells; format: cell-based, African green monkey; details: Chlorocebus sabaeus, 72 h
Protocol: Vero cells were derived from the kidney of an African green monkey, cells were maintained in Dulbecco’s Modified Eagle’s Medium (DMEM), supplemented with 10% heat-inactivated FBS and penicillin-streptomycin solution 1% at 37 °C, 5% CO2 atmosphere and > 95% humidity. We evaluated through a colorimetric method the effect of compounds 8–23 on the promastigotes of L. brasiliensis. Briefly, 96-well plates were used, where 2 × 10^6 parasites/mL were seeded. A concentration of 50 μM was used for each compound and an incubation time of 96 h at 29 °C. 3-(4,5-dimethylthiazol-2-yl)-2,5-diphenyl tetrazolium bromide (MTT) 1 μg/mL was added and incubated in darkness for 4 h, acidic isopropanol (4N) was added and the plate was read at 570 nm in a spectrophotometer Synergy HT (Biotek). Miltefosine was used as a reference drug. The EC50 calculation of the selected compound was performed using growth curves. Direct counting was used to monitor the proliferation of parasites, three independent experiments were performed for each concentration of the compounds evaluated. The in vitro evaluations of compounds toxicity by MTT in VERO and BMDM cells follow a methodology described above with some modifications. The selectivity index was calculated with SI = CC50/EC50, where CC50 was the maximum concentration range of compounds 10, 21–23 used to evaluate cytotoxicity in VERO and BMDM cells. The trypanocidal activity of compounds 8–23 was evaluated on the viability of T. cruzi epimastigotes through a colorimetric method adapted with minor modifications. 2 × 10^6 parasites/mL were seeded in a 96-well plate, adding 50 μM of each derivative dissolved in DMSO (final concentration remained below 1%). The plate was incubated for 96 h at 29 °C. Then, 1 μg/mL of 3-(4,5-dimethylthiazol-2-yl)-2,5-diphenyl tetrazolium bromide (MTT) was added and incubated in darkness for 4 h. After this time, acidic isopropanol (4N) was added and the plate was read at 570 nm in a spectrophotometer Synergy HT (Biotek). Benznidazole was used as a reference drug. The in vitro evaluations of compounds toxicity by MTT in VERO and BMDM cells follow a methodology described above with some modifications. Cells were counted in suspension and seeded at 20 × 10^3 cells/well. The test was carried out in triplicate on 96-well microplates in different concentrations: 50 μM, 100 μM, 200 μM and 300 μM, untreated cells and reference drug (benznidazole) controls.

[4] = test system: HCT-116; assay: MTS antiproliferative assay HCT116; format: cell-based; details: Homo sapiens, 72 h of incubation
Excerpt: as §1, §2, §3

[5] = test system: K562-TAX; assay: MTS antiproliferative assay K562-TAX; format: cell-based, human; details: 72 h of incubation, paclitaxel-resistant
Excerpt: as §1, §2, §3

IC50 [4]: 13 ± 3.61 µM
IC50 [5]: 21.4 ± 4.08 µM
IC50 ([5]; Homo sapiens, K562-Tax, 72 h): > 21.4 µM
SMILES: COc1ccc2c(c1)CC/C(=C\c1cccnc1Oc1ccc(Cl)cc1)C2=O [Compound 22, (E)-2-{[2-(4-Chlorophenoxy)pyridin-3-yl]methylene}-3,4-dihydro-6-methoxynaphthalen-1(2H)-one]
IC50 [1]: 22.5 ± 4.77 µM
EC50 ([2]; 72 h, promastigotes): 12.4 ± 1.15 µM
SIB/Lb selectivity index on L. braziliensis/BMDM ([2]; SI = CC50/EC50): 38
EC50 [3]: > 100 µM
